Source: patent publication US6737383B1, “Herbicidal oxadiazolidines” (priority 1999, dated 2004)

How the values were obtained:
[1] = test system: bedstraw; test: Test B pre/postemergence bedstraw; format: in vivo, Galium aparine
Method in brief: (§1)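 Herbicidal effect was estimated by eye on a ten-point control scale after plants spent twelve to sixteen days in a greenhouse following soil or foliar treatment. Foliar sprays targeted plants at one to four leaves; all doses were formulated in a non-phytotoxic solvent with surfactant.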

[2] = test system: blackgrass; test: Test B pre/postemergence blackgrass; format: in vivo, Alopecurus myosuroides
Method in brief: as §1

[3] = test system: surinam grass; test: Test B pre/postemergence surinam grass; format: in vivo, Brachiaria decumbens
Method in brief: as §1

[4] = test system: cocklebur; test: Test B pre/postemergence cocklebur; format: in vivo, Xanthium strumarium
Method in brief: as §1

[5] = test system: corn; test: Test B pre/postemergence corn; format: in vivo, Zea mays
Method in brief: as §1

[6] = test system: giant foxtail; test: Test B pre/postemergence giant foxtail; format: in vivo, Setaria faberii
Method in brief: as §1

[7] = test system: morningglory; test: Test B pre/postemergence morningglory; format: in vivo, Ipomoea hederacea
Method in brief: as §1

[8] = test system: pigweed; test: Test B pre/postemergence pigweed; format: in vivo, Amaranthus retroflexus
Method in brief: as §1

[9] = test system: rape; test: Test B pre/postemergence rape; format: in vivo, Brassica napus
Method in brief: as §1

[10] = test system: soybean; test: Test B pre/postemergence soybean; format: in vivo, Glycine max
Method in brief: as §1

[11] = test system: sugar beet; test: Test B pre/postemergence sugar beet; format: in vivo, Beta vulgaris
Method in brief: as §1

[12] = test system: velvetleaf; test: Test B pre/postemergence velvetleaf; format: in vivo, Abutilon theophrasti
Method in brief: as §1

[13] = test system: wheat; test: Test B pre/postemergence wheat; format: in vivo, Triticum aestivum
Method in brief: as §1

[14] = test system: wild oat; test: Test B pre/postemergence wild oat; format: in vivo, Avena fatua
Method in brief: as §1

[15] = test system: rice; test: Test B flood test rice; format: in vivo, Oryza sativa
Method in brief: (§2)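 Read-out is a visual response score from 0 (no effect) to 10 (complete control), assigned by comparison with untreated controls. Treatment was applied at the 2-leaf stage, and plants stayed in the greenhouse for twelve to sixteen days before scoring.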

[16] = test system: smallflower flatsedge; test: Test B flood test smallflower flatsedge; format: in vivo, Cyperus difformis
Method in brief: as §2

[17] = Preemergence, Rate 62 g/ha, scale of 0 to 10 where 0 is no effect and 10 is complete control
[18] = Preemergence, Rate 125 g/ha, 0 is no effect, 10 is complete control
[19] = Preemergence, Rate 250 g/ha, scale 0 to 10, 0 is no effect, 10 is complete control
[20] = Preemergence, Rate 500 g/ha, scale of 0 to 10 where 0 is no effect and 10 is complete control
[21] = Rate 62 g/ha, Postemergence, scale of 0 to 10 where 0 is no effect and 10 is complete control
[22] = Rate 125 g/ha, Postemergence, scale 0 to 10
[23] = Rate 500 g/ha, Postemergence, scale 0 to 10
[24] = Rate 62 g/ha, headed Pre-emergence (flood test species), scale 0 to 10 (0 no effect, 10 complete control)
[25] = Rate 125 g/ha, Pre-emergence, flood test species, scale 0 to 10 where 0 is no effect and 10 is complete control
[26] = Rate 250 g/ha, Pre-emergence, flood-test species, scale 0 to 10, 0 is no effect, 10 is complete control

Cc1ccccc1-n1c(=O)on(C(=O)N(c2ccccc2F)C(C)C)c1=O [Compound 204]
9: Giant foxtail plant response rating (0 to 10 scale) [6, 18]
1: Plant response rating (0 to 10; 0 is no effect, 10 is complete control), Cocklebur ([4]; Rate 250 g/ha, Postemergence) | Cocklebur plant response rating [4, 23] | Soybean plant response rating [10, 21] | Soybean plant response rating [10, 22] | Plant response rating (0 to 10; 0 is no effect, 10 is complete control), Soybean ([10]; Rate 250 g/ha, Postemergence) | Velvetleaf plant response rating [12, 22] | Plant response rating (0 to 10; 0 is no effect, 10 is complete control), Velvetleaf ([12]; Rate 250 g/ha, Postemergence)
4: Plant response rating (0 to 10; 0 is no effect, 10 is complete control), Redroot pigweed ([8]; Rate 250 g/ha, Postemergence)
7: Bedstraw plant response rating [1, 23] | Blackgrass plant response rating [2, 23] | Giant foxtail plant response rating [6, 17] | Redroot pigweed plant response rating [8, 23] | Soybean plant response rating [10, 23]
8: Morningglory plant response rating [7, 23]
6: Plant response rating (0 to 10; 0 is no effect, 10 is complete control), Bedstraw ([1]; Rate 250 g/ha, Postemergence) | Plant response rating, Wild oats [14, 20]
3: Plant response rating (0 to 10; 0 is no effect, 10 is complete control), Blackgrass ([2]; Rate 250 g/ha, Postemergence) | Giant foxtail plant response rating [6, 23] | Morningglory plant response rating [7, 21] | Morningglory plant response rating [7, 22] | Plant response rating (0 to 10; 0 is no effect, 10 is complete control), Morningglory ([7]; Rate 250 g/ha, Postemergence) | Plant response rating, Rape [9, 20] | Wild oats plant response rating [14, 19]
5: Plant response rating, Blackgrass [2, 20]
0: Bedstraw plant response rating [1, 17] | Bedstraw plant response rating (0 to 10 scale) [1, 18] | Bedstraw plant response rating [1, 19] | Plant response rating, Bedstraw [1, 20] | Bedstraw plant response rating [1, 21] | Bedstraw plant response rating [1, 22] | Blackgrass plant response rating [2, 17] | Blackgrass plant response rating [2, 21] | B. signalgrass plant response rating [3, 17] | B. signalgrass plant response rating (0 to 10 scale) [3, 18] | B. signalgrass plant response rating [3, 19] | B. signalgrass plant response rating [3, 21] | B. signalgrass plant response rating ([3]; Rate 125 g/ha, Postemergence, scale 0 (no effect) to 10 (complete control)) | Plant response rating, B. signalgrass ([3]; Rate 250 g/ha, Postemergence, scale 0 to 10, 0 is no effect, 10 is complete control) | B. signalgrass plant response rating ([3]; Rate 500 g/ha, Postemergence, scale 0 to 10, 0 no effect, 10 complete control) | Cocklebur plant response rating [4, 17] | Cocklebur plant response rating (0 to 10 scale) [4, 18] | Cocklebur plant response rating [4, 19] | Plant response rating, Cocklebur [4, 20] | Cocklebur plant response rating [4, 21] | Cocklebur plant response rating [4, 22] | Corn plant response rating [5, 17] | Corn plant response rating (0 to 10 scale) [5, 18] | Corn plant response rating [5, 19] | Corn plant response rating [5, 21] | Corn plant response rating [5, 22] | Plant response rating (0 to 10; 0 is no effect, 10 is complete control), Corn ([5]; Rate 250 g/ha, Postemergence) | Corn plant response rating [5, 23] | Giant foxtail plant response rating [6, 21] | Giant foxtail plant response rating [6, 22] | Plant response rating (0 to 10; 0 is no effect, 10 is complete control), Giant foxtail ([6]; Rate 250 g/ha, Postemergence) | Morningglory plant response rating [7, 17] | Morningglory plant response rating (0 to 10 scale) [7, 18] | Morningglory plant response rating [7, 19] | Plant response rating, Morningglory [7, 20] | Redroot pigweed plant response rating [8, 17] | Redroot pigweed plant response rating (0 to 10 scale) [8, 18] | Redroot pigweed plant response rating [8, 19] | Plant response rating, Redroot pigweed [8, 20] | Redroot pigweed plant response rating [8, 21] | Redroot pigweed plant response rating [8, 22] | Rape plant response rating [9, 17] | Rape plant response rating (0 to 10 scale) [9, 18] | Rape plant response rating [9, 19] | Rape plant response rating [9, 21] | Rape plant response rating [9, 22] | Plant response rating (0 to 10; 0 is no effect, 10 is complete control), Rape ([9]; Rate 250 g/ha, Postemergence) | Rape plant response rating [9, 23] | Soybean plant response rating [10, 17] | Soybean plant response rating (0 to 10 scale) [10, 18] | Soybean plant response rating [10, 19] | Plant response rating, Soybean [10, 20] | Sugarbeets plant response rating [11, 17] | Sugarbeets plant response rating (0 to 10 scale) [11, 18] | Sugarbeets plant response rating [11, 19] | Plant response rating, Sugarbeets [11, 20] | Sugarbeets plant response rating [11, 21] | Sugarbeets plant response rating [11, 22] | Plant response rating (0 to 10; 0 is no effect, 10 is complete control), Sugarbeets ([11]; Rate 250 g/ha, Postemergence) | Sugarbeets plant response rating [11, 23] | Velvetleaf plant response rating [12, 17] | Velvetleaf plant response rating [12, 19] | Plant response rating, Velvetleaf [12, 20] | Velvetleaf plant response rating [12, 21] | Wheat plant response rating [13, 17] | Wheat plant response rating [13, 19] | Wheat plant response rating [13, 21] | Wheat plant response rating [13, 22] | Plant response rating (0 to 10; 0 is no effect, 10 is complete control), Wheat ([13]; Rate 250 g/ha, Postemergence) | Wild oats plant response rating [14, 17] | Wild oats plant response rating [14, 21] | Wild oats plant response rating [14, 22] | Plant response rating (0 to 10; 0 is no effect, 10 is complete control), Wild oats ([14]; Rate 250 g/ha, Postemergence) | Rice plant response rating [15, 24] | Rice plant response rating [15, 25] | Rice plant response rating [15, 26] | Plant response rating, Rice ([15]; Rate 500 g/ha, headed Pre-emergence (flood test species), scale 0 to 10 (0 no effect, 10 complete control)) | S. Flatsedge plant response rating [16, 24] | S. Flatsedge plant response rating [16, 25] | S. Flatsedge plant response rating [16, 26] | S. Flatsedge plant response rating ([16]; Rate 500 g/ha, Pre-emergence, flood test species, scale 0 to 10 (0 no effect, 10 complete control))
10: Giant foxtail plant response rating [6, 19] | Plant response rating, Giant foxtail [6, 20]
2: Blackgrass plant response rating (0 to 10 scale) [2, 18] | Blackgrass plant response rating [2, 19] | Blackgrass plant response rating [2, 22] | Plant response rating, B. signalgrass [3, 20] | Plant response rating, Corn [5, 20] | Plant response rating, Wheat [13, 20]
